ChEMBL document CHEMBL3046421, “Transition metals in organic synthesis - Part 83#: Synthesis and pharmacological potential of carbazoles” (Med Chem Res, 2008)
≈ marks a conversion by molar mass, not a printed value.

Assays:
Vero = test: Cytotoxicity against Chlorocebus aethiops (African green monkey) Vero cells; assay type: cell-based; details: Chlorocebus sabaeus
[1] = tested on: Mycobacterium tuberculosis; test: Antimycobacterial activity against Mycobacterium tuberculosis H37Rv by microplate alamar blue assay; assay type: functional
[2] = Selectivity index, ratio of IC50 for african green monkey Vero cells to MIC90 for Mycobacterium tuberculosis H37Rv; assay type: toxicity, cell-based; details: read-out: Selectivity Index
[3] = target: T1, Polyunsaturated fatty acid 5-lipoxygenase (Rattus norvegicus, UniProt P12527); test: Inhibition of Rattus norvegicus (rat) 5-lipoxygenase
T1 sequence (P12527 whole entry): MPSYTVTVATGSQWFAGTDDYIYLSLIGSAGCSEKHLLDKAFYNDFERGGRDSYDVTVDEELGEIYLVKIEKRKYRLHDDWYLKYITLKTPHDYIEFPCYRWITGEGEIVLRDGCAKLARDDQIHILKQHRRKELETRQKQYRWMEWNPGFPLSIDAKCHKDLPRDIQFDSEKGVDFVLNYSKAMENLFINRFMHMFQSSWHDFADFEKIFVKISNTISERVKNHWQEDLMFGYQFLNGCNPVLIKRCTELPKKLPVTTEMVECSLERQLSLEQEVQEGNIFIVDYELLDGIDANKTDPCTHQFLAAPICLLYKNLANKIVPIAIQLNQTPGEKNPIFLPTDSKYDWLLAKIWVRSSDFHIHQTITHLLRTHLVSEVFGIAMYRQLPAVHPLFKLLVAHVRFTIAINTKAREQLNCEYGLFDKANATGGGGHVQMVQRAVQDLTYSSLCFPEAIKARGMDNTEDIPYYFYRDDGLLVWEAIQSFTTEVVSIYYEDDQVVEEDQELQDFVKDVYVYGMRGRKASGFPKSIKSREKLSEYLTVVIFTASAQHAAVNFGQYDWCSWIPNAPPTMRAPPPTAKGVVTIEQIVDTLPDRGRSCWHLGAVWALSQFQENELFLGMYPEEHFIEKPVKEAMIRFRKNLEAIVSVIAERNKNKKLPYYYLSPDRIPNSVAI

[4] = tested on: Mycobacterium tuberculosis; test: Antimycobacterial activity against Mycobacterium tuberculosis H37Ra; assay type: functional
[5] = tested on: Mycobacterium tuberculosis; test: Antimycobacterial activity against Mycobacterium tuberculosis H37Rv; assay type: functional
Plasmodium falciparum = test: Antiplasmodial activity against Plasmodium falciparum; assay type: functional, organism-based
Brain = test: Inhibition of free-radical-induced lipid peroxidation in Rattus norvegicus (rat) brain homogenates; assay type: functional, tissue-based

**Q.** Which results are given for `Cc1ccc2[nH]c3ccc(O)cc3c2c1` [GLYCOZOLININE]?
**A.** IC50 (Vero): 57 µM; MIC90 [1]: 123 µM (≈ 24.3 µg/mL); selectivity ratio [2]: 0.5

**Q.** Which IC50 [3] does the source give for `Cc1c(O)cc2c([nH]c3c(O)ccc(CO)c32)c1C1OC1(C)CCC(C)C` (racemic) [RAC-EPOCARBAZOLIN A] here?
**A.** 2.4 µM

**Q.** With `COc1ccc2c(c1)[nH]c1ccc(C(=O)O)cc12` [CLAUSINE N] as the molecule, how does the MIC90 [1] read?
**A.** > 128 µM

**Q.** With `COc1ccc2c(c1)[nH]c1cc(OC)c(C(=O)O)cc12` [CLAUSINE K] as the molecule, how does the IC50 (Vero) read?
**A.** 25 µM

**Q.** And the MIC90 [4]?
**A.** 100 µg/mL (≈ 369 µM)

**Q.** And the MIC90 [1]?
**A.** > 128 µM

**Q.** And the selectivity ratio [2]?
**A.** < 0.2

**Q.** Which MIC90 [1] does the source give for `COC(=O)c1ccc2[nH]c3cc(OC)ccc3c2c1` [CLAUSINE C] here?
**A.** > 128 µM

**Q.** Which IC50 (Vero) does the source give for `COc1ccc2c(c1)[nH]c1cc(OC)c(C=O)cc12` [LANSINE] here?
**A.** 96 µM

**Q.** What about the MIC90 [1] of the same molecule?
**A.** > 128 µM

**Q.** What about the selectivity ratio [2] of the same molecule?
**A.** < 0.8

**Q.** With `COc1ccc2[nH]c3ccc(C)cc3c2c1` [GLYCOZOLINE] as the molecule, how does the MIC90 [1] read?
**A.** > 128 µM

**Q.** Which MIC90 [1] does the source give for `COc1ccc2c(c1)[nH]c1ccc(C=O)cc12` [CLAUSZOLINE K] here?
**A.** > 128 µM

**Q.** With `CC(C)=CCc1c(O)ccc2[nH]c3ccc(C=O)cc3c12` [MICROMELINE] as the molecule, how does the MIC90 [5] read?
**A.** 31.5 µg/mL (≈ 113 µM)

**Q.** What about the MIC90 [1] of the same molecule?
**A.** > 128 µM

**Q.** For `COC(=O)c1cc2c(cc1OC)[nH]c1cc(OC)ccc12` [CLAUSZOLINE C], which IC50 (Plasmodium falciparum) is on record?
**A.** 5.5 µg/mL (≈ 19.3 µM)

**Q.** For `COc1ccc2c(c1)[nH]c1cc(OC)c(C)cc12`, which IC50 (Vero) is on record?
**A.** > 128 µM

**Q.** What about the MIC90 [1] of the same molecule?
**A.** > 128 µM

**Q.** What does the source list for `O=Cc1cc2c(cc1O)[nH]c1cc(O)ccc12` [CLAUSINE O]?
**A.** IC50 (Vero): 114 µM; MIC90 [1]: 89 µM (≈ 20.2 µg/mL); selectivity ratio [2]: 1.3

**Q.** Which IC50 (Vero) does the source give for `COC(=O)c1ccc2[nH]c3ccc(OC)cc3c2c1` here?
**A.** > 128 µM

**Q.** What about the MIC90 [1] of the same molecule?
**A.** 32 µM (≈ 8.17 µg/mL)

**Q.** And the selectivity ratio [2]?
**A.** > 4

**Q.** Which results are given for `CO[C@H]1/C=C/O[C@@]2(C)Oc3c(C)c(O)c4c(O)c(c(/C=N/N5CCN(C)CC5)c(O)c4c3C2=O)NC(=O)/C(C)=C\C=C\[C@H](C)[C@H](O)[C@@H](C)[C@@H](O)[C@@H](C)[C@H](OC(C)=O)[C@@H]1C` [RIFAMPIN]?
**A.** IC50 (Vero): 105 µM; MIC90 [1]: 0.09 µM (≈ 0.0741 µg/mL); selectivity ratio [2]: 1170

**Q.** Which results are given for `NNC(=O)c1ccncc1` [ISONIAZID]?
**A.** IC50 (Vero): > 128 µM; MIC90 [1]: 0.4 µM (≈ 0.0549 µg/mL); selectivity ratio [2]: > 320

**Q.** What does the source list for `COC(=O)c1ccc2[nH]c3cc(O)ccc3c2c1` [CLAUSINE M]?
**A.** IC50 (Vero): 35 µM; MIC90 [1]: 19 µM (≈ 4.58 µg/mL); selectivity ratio [2]: 1.8

**Q.** For `COc1ccc2[nH]c3ccc(C=O)cc3c2c1`, which MIC90 [5] is on record?
**A.** 15.6 µg/mL (≈ 69.3 µM)

**Q.** And the IC50 (Vero)?
**A.** > 128 µM

**Q.** And the MIC90 [1]?
**A.** 99 µM (≈ 22.3 µg/mL)

**Q.** And the selectivity ratio [2]?
**A.** > 1.3

**Q.** Which IC50 [3] does the source give for `CC[C@H](C)CCC1(C)OC1c1c(C)c(O)cc2c1[nH]c1c(O)ccc(CO)c12` (stereo partly specified) [EPOCARBAZOLIN B] here?
**A.** 2.6 µM

**Q.** Which IC50 (Brain) does the source give for `COc1c(C)c(C[C@@H](C)O)c2[nH]c3ccc(CC=C(C)C)cc3c2c1O` [(R)-(-)-NEOCARAZOSTATIN B] here?
**A.** 0.39 µM

**Q.** With `COc1c(C)c(C[C@@H](C)OC(C)=O)c2[nH]c3ccc(Br)cc3c2c1OC(C)=O` as the molecule, how does the IC50 (Vero) read?
**A.** 25 µM

**Q.** What about the MIC90 [1] of the same molecule?
**A.** 55 µM (≈ 24.7 µg/mL)

**Q.** And the selectivity ratio [2]?
**A.** 0.5

**Q.** Which IC50 (Vero) does the source give for `Cc1ccc2[nH]c3ccc4occc4c3c2c1` [EUSTIFOLINE-D] here?
**A.** > 128 µM

**Q.** What about the MIC90 [1] of the same molecule?
**A.** > 128 µM

**Q.** With `COC1=C(C)C(=O)c2[nH]c3ccccc3c2C1=O` [3-METHOXY-2-METHYLCARBAZOLE-1,4-QUINONE] as the molecule, how does the IC50 (Vero) read?
**A.** > 128 µM

**Q.** What about the MIC90 [1] of the same molecule?
**A.** 8 µM (≈ 1.93 µg/mL)

**Q.** And the selectivity ratio [2]?
**A.** > 16

**Q.** For `COc1ccc2[nH]c3ccc(C=O)cc3c2c1Br` [5-BROMO-3-FORMYL-6-METHOXYCARBAZOLE], which IC50 (Vero) is on record?
**A.** 78 µM

**Q.** What about the MIC90 [1] of the same molecule?
**A.** > 128 µM

**Q.** And the selectivity ratio [2]?
**A.** < 0.6

**Q.** For `CC(C)=CCc1cc2c(cc1O)[nH]c1ccc(C)cc12` [SIAMENOL], which IC50 (Vero) is on record?
**A.** 15 µM

**Q.** What about the MIC90 [1] of the same molecule?
**A.** 22 µM (≈ 5.84 µg/mL)

**Q.** What about the selectivity ratio [2] of the same molecule?
**A.** 0.7

**Q.** With `COc1ccc2c(c1)[nH]c1ccc(C)cc12` [7-METHOXY-3-METHYLCARBAZOLE] as the molecule, how does the MIC90 [1] read?
**A.** > 128 µM
